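These data come from cells grown in 96-well plates and exposed to compound for 48 hours at five concentrations. Abbreviation: GI50, concentration required for 50% inhibition of growth. Definition used: TGI = concentration required for complete inhibition of growth.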
How the values were obtained:
Test in all cases: inhibition of tumour cell growth, NCI panel, 48 h
[1] = system: MDA-MB-435
[2] = system: NCI-H522 lung
[3] = system: SR leukemia
[4] = system: UACC-62 melanoma
[5] = system: NCI-H23 lung
[6] = system: UACC-257 melanoma
[7] = system: SF-295 CNS
[8] = system: EKVX NSCLC
[9] = system: HCT-15 colon
[10] = system: KM12 colon
[11] = system: CAKI-1 renal
[12] = system: M14 melanoma
[13] = system: NCI/ADR-RES ovarian
[14] = system: HT29 colon
[15] = system: SF-539 CNS
[16] = system: SK-OV-3 ovarian
[17] = system: PC-3 prostate
[18] = system: A549 NSCLC
[19] = system: OVCAR-3 ovarian
[20] = system: SK-MEL-2 melanoma
[21] = system: DU-145 prostate
[22] = system: MCF7 breast
[23] = system: CCRF-CEM leukemia
[24] = system: COLO 205 colon
[25] = system: TK-10 renal
[26] = system: OVCAR-8 ovarian
[27] = system: A498 renal
[28] = system: UO-31 renal
[29] = system: SK-MEL-28 melanoma
[30] = system: T-47D breast
[31] = system: IGROV1 ovarian
[32] = system: HS 578T breast
[33] = system: OVCAR-5 ovarian
[34] = system: BT-549 breast
[35] = system: ACHN renal
[36] = system: NCI-H226 lung
[37] = system: SK-MEL-5 melanoma
[38] = system: MDA-MB-231 breast
[39] = system: SN12C renal
[40] = system: SF-268 CNS
[41] = system: SNB-75 CNS
[42] = system: LOX IMVI melanoma
[43] = system: SW-620 colon
[44] = system: SNB-19 CNS
[45] = system: 786-0 renal
[46] = system: MOLT-4 leukemia
[47] = system: HCC-2998 colon
[48] = system: RPMI-8226 leukemia
[49] = system: HL-60(TB) leukemia
[50] = system: U251 CNS
[51] = system: HOP-92 NSCLC
[52] = system: RXF 393 renal
[53] = system: K-562 leukemia
[54] = system: HCT-116 colon
[55] = system: NCI-H460 lung
[56] = system: MALME-3M melanoma
[57] = system: OVCAR-4 ovarian
[58] = system: HOP-62 NSCLC

Compound: CCCCCCCCCCCCCCCC[N+](C)(C)Cc1ccc(F)cc1
- TGI [1]: 3990 nM
- TGI [2]: 2030 nM
- TGI [3]: 4230 nM
- TGI [4]: 4450 nM
- TGI [5]: 14200 nM
- TGI [6]: 4920 nM
- TGI [7]: 7690 nM
- TGI [8]: 6010 nM
- TGI [9]: 34900 nM
- TGI [10]: 2330 nM
- TGI [11]: 15600 nM
- TGI [12]: 3050 nM
- TGI [13]: 57100 nM
- TGI [14]: 5780 nM
- TGI [15]: 2310 nM
- TGI [16]: 6680 nM
- TGI [17]: 2510 nM
- TGI [18]: 11300 nM
- TGI [19]: 5490 nM
- TGI [20]: 2820 nM
- TGI [21]: 20800 nM
- TGI [22]: 3670 nM
- TGI [23]: 3280 nM
- TGI [24]: 2870 nM
- TGI [25]: 4800 nM
- TGI [26]: 3110 nM
- TGI [27]: 88700 nM
- TGI [28]: 31100 nM
- TGI [29]: 15100 nM
- TGI [30]: 25900 nM
- TGI [31]: 1570 nM
- TGI [32]: 3440 nM
- TGI [33]: 3790 nM
- TGI [34]: 8870 nM
- TGI [35]: 10100 nM
- TGI [36]: 9580 nM

Compound: COc1ccc2[nH]c(=O)c(/C=C/C(=O)c3ccccc3OC)cc2c1
- GI50 [1]: 56.4 nM
- TGI [1]: 275 nM
- GI50 [37]: 728 nM
- TGI [37]: 2080 nM
- GI50 [38]: 1440 nM
- TGI [38]: 11000 nM
- GI50 [39]: 537 nM
- TGI [39]: 10300 nM
- GI50 [2]: 352 nM
- TGI [2]: 2060 nM
- GI50 [3]: 65.6 nM
- TGI [3]: 10300 nM
- GI50 [4]: 478 nM
- TGI [4]: 2970 nM
- GI50 [5]: 1330 nM
- TGI [5]: 3930 nM
- GI50 [6]: 1380 nM
- TGI [6]: 3050 nM
- GI50 [7]: 529 nM
- TGI [7]: 12100 nM
- GI50 [8]: 2050 nM
- TGI [8]: 10500 nM
- GI50 [40]: 690 nM
- TGI [40]: 10500 nM
- GI50 [41]: 470 nM
- TGI [41]: 14200 nM
- GI50 [9]: 395 nM
- TGI [9]: 2050 nM
- GI50 [42]: 379 nM
- TGI [42]: 1610 nM
- GI50 [43]: 335 nM
- TGI [43]: 2240 nM
- GI50 [44]: 362 nM
- TGI [44]: 1790 nM
- GI50 [10]: 321 nM
- TGI [10]: 1580 nM
- GI50 [12]: 278 nM
- TGI [12]: 1410 nM
- GI50 [13]: 273 nM
- TGI [13]: 20000 nM
- GI50 [14]: 293 nM
- TGI [14]: 1370 nM
- GI50 [15]: 443 nM
- TGI [15]: 2490 nM
- GI50 [16]: 2230 nM
- TGI [16]: 12800 nM
- GI50 [17]: 842 nM
- TGI [17]: 3750 nM
- GI50 [45]: 378 nM
- TGI [45]: 1560 nM
- GI50 [18]: 2090 nM
- TGI [18]: 10400 nM
- GI50 [19]: 359 nM
- TGI [19]: 1640 nM
- GI50 [46]: 421 nM
- TGI [46]: 27100 nM
- GI50 [20]: 694 nM
- TGI [20]: 4390 nM
- GI50 [47]: 1570 nM
- TGI [47]: 3030 nM
- GI50 [21]: 529 nM
- TGI [21]: 1960 nM
- GI50 [22]: 312 nM
- TGI [22]: 7480 nM
- GI50 [23]: 392 nM
- TGI [23]: > 100000 nM
- GI50 [48]: 385 nM
- TGI [48]: 2210 nM
- GI50 [25]: 2310 nM
- TGI [25]: 13100 nM
- GI50 [26]: 874 nM
- TGI [26]: 11600 nM
- GI50 [49]: 206 nM
- TGI [49]: 883 nM
- GI50 [50]: 521 nM
- TGI [50]: 1700 nM
- GI50 [51]: 1570 nM
- TGI [51]: 6170 nM
- GI50 [52]: 1020 nM
- TGI [52]: 2570 nM
- GI50 [53]: 162 nM
- TGI [53]: > 100000 nM
- GI50 [27]: 656 nM
- TGI [27]: 4550 nM
- GI50 [54]: 348 nM
- TGI [54]: 1480 nM
- GI50 [28]: 958 nM
- TGI [28]: 2280 nM
- GI50 [29]: 1520 nM
- TGI [29]: 7310 nM
- GI50 [55]: 380 nM
- TGI [55]: 2250 nM
- GI50 [30]: 1060 nM
- TGI [30]: 11800 nM
- GI50 [31]: 582 nM
- TGI [31]: 17000 nM
- GI50 [56]: 766 nM
- TGI [56]: 8090 nM
- GI50 [33]: 1970 nM
- TGI [33]: 10400 nM
- GI50 [57]: 4070 nM
- TGI [57]: 23200 nM
- GI50 [34]: 387 nM
- TGI [34]: 2420 nM
- GI50 [36]: 3340 nM
- TGI [36]: 18500 nM
- GI50 [58]: 1240 nM
- TGI [58]: 5320 nM

— PubChem BioAssay (NCI)
